Assay results as given in ChEMBL document CHEMBL1158868, “Bioactive and other sesquiterpenes from Chiloscyphus rivularis” (J Nat Prod, 1997).
Values after ≈ are worked out from the molar mass of the structure shown. Active and inactive are the calls of the source. The rule behind the calls is not given here.

Columns and labels:
Saccharomyces cerevisiae [1] = test: Antimicrobial activity against rad52 gene deficient and DNA repair deficient yeast RS322; type: functional
Saccharomyces cerevisiae [2] = test: Antimicrobial activity against rad gene expressing and DNA repair proficient wild type yeast RS188N; type: functional
Saccharomyces cerevisiae [3] = test: Antimicrobial activity against rad52.top1 gene deficient yeast RS321; type: functional
A549 = test: Cytotoxicity against human A549 cells; type: functional, cell-based
[4] = Cytotoxicity against human NCI60 cells; type: functional

## C[C@H]1CC[C@@H](O)[C@]23CC[C@H](C(=O)O2)[C@]13C [RIVULALACTONE]
Saccharomyces cerevisiae [1]
  IC12: > 500 µg/mL

## C=C(CO)C(=O)[C@H]1CCC2=CC(=O)C[C@H](C)[C@]21C
Saccharomyces cerevisiae [1]
  IC12: > 500 µg/mL

## C[C@H]1CCC=C2CC[C@H](C(=O)C(O)(CO)CO)[C@@]21C
Saccharomyces cerevisiae [1]
  Activity: inactive

## C[C@H]1CCC=C2CC[C@H](C(=O)C3(CO)CO3)[C@@]21C (stereo partly specified)
Saccharomyces cerevisiae [1]
  Activity: inactive

## C=C(CO)C(=O)[C@H]1CCC2=CCC[C@H](C)[C@]21C
Saccharomyces cerevisiae [1]
  IC12: 75 µg/mL
Saccharomyces cerevisiae [2]
  IC12: 88 µg/mL
Saccharomyces cerevisiae [3]
  IC12: > 1000 µg/mL
A549
  IC50: 2 mg/L (≈ 8.53 µM)
[4]
  GI50: 10 µM

## C=C(C)C(=O)[C@H]1CC(=O)C2=CC(=O)C[C@H](C)[C@]21C
Saccharomyces cerevisiae [1]
  IC12: > 500 µg/mL

## C=C(C)C(=O)[C@H]1CCC2=CC(=O)C[C@H](C)[C@]21C
Saccharomyces cerevisiae [1]
  IC12: > 500 µg/mL
